# ChEMBL document CHEMBL5608241, “Discovery of Novel Non-nucleoside DOT1LR231Q Inhibitors with Improved Pharmacokinetic Properties and Anti-lung Cancer Efficacy” (J Med Chem, 2024)
# Activity calls are given as the source filed them. The calls are words filed in the database; no cut-off is given here.
# What was measured:
# NCI-H460 [1] = assay: Antiproliferative activity against human NCI-H460 cells harboring wildtype DOT1L (unknown origin) (1 to 416 residues) assessed as inhibition of cell proliferation incubated for 72 hrs by CCK-8 assay; assay type: functional, cell-based; settings: NCI-H460, 72 h
# NCI-H460 [2] = assay: Downregulation of H3K79me2 expression in human NCI-H460 cells exogenously expressing DOT1L R231Q mutant (unknown origin) (1 to 416 residues) at 5 uM by Western blot analysis; assay type: functional, cell-based
# NCI-H460 [3] = assay: Effect on H3K27me3 expression in human NCI-H460 cells exogenously expressing DOT1L R231Q mutant (unknown origin) (1 to 416 residues) at 5 uM by Western blot analysis; assay type: functional, cell-based
# NCI-H460 [4] = assay: Effect on H3K4me1 expression in human NCI-H460 cells exogenously expressing DOT1L R231Q mutant (unknown origin) (1 to 416 residues) at 5 uM by Western blot analysis; assay type: functional, cell-based
# NCI-H460 [5] = assay: Effect on H3K36me2 expression in human NCI-H460 cells exogenously expressing DOT1L R231Q mutant (unknown origin) (1 to 416 residues) at 5 uM by Western blot analysis; assay type: functional, cell-based
# NCI-H460 [6] = assay: Effect on H3K27me3 expression in human NCI-H460 cells exogenously expressing wildtype DOT1L (unknown origin) (1 to 416 residues) at 5 uM by Western blot analysis; assay type: functional, cell-based
# NCI-H460 [7] = assay: Effect on H3K9me2 expression in human NCI-H460 cells exogenously expressing wildtype DOT1L (unknown origin) (1 to 416 residues) at 5 uM by Western blot analysis; assay type: functional, cell-based
# NCI-H460 [8] = assay: Effect on H3K4me1 expression in human NCI-H460 cells exogenously expressing wildtype DOT1L (unknown origin) (1 to 416 residues) at 5 uM by Western blot analysis; assay type: functional, cell-based
# NCI-H460 [9] = assay: Effect on H3K36me2 expression in human NCI-H460 cells exogenously expressing wildtype DOT1L (unknown origin) (1 to 416 residues) at 5 uM by Western blot analysis; assay type: functional, cell-based
# NCI-H460 [10] = assay: Antimigratory activity in human NCI-H460 cells exogenously expressing wildtype DOT1L (unknown origin) (1 to 416 residues) assessed as decrease in number of migrating cells at 5 uM measured after 72 hrs by wound healing assay relative to control; assay type: functional; design: scale not given: the % may be the effect or the level left
# NCI-H460 [11] = assay: Inhibition of sphere formation in human NCI-H460 cells exogenously expressing wildtype DOT1L (unknown origin) (1 to 416 residues) assessed as reduction in self-renewal at 5 uM incubated for 7 to 14 days by inverted microscopic analysis relative to control; assay type: functional; settings: time 7-14 day
# NCI-H460 [12] = assay: Inhibition of sphere formation in human NCI-H460 cells exogenously expressing DOT1L R231Q mutant (unknown origin) (1 to 416 residues) assessed as reduction in self-renewal at 2.5 to 5 uM incubated for 7 to 14 days by inverted microscopic analysis; assay type: functional, cell-based; settings: dose 2.5-5 µM, time 7-14 day
# NCI-H460 [13] = assay: Antiinvasive activity against human NCI-H460 cells exogenously expressing wildtype DOT1L (unknown origin) (1 to 416 residues) assessed as inhibition of cell invasion at 2.5 to 5 uM incubated for 72 hrs by crystal violet staining based transwell invasion assay; assay type: functional; settings: dose 2.5-5 µM
# NCI-H460 [14] = assay: Antiinvasive activity against human NCI-H460 cells exogenously expressing DOT1L R231Q mutant (unknown origin) (1 to 416 residues) assessed as decrease in number of invading cells at 5 uM incubated for 72 hrs by crystal violet staining based transwell invasion assay relative to control; assay type: functional; design: scale not given: the % may be the effect or the level left
# NCI-H460 [15] = assay: Inhibition of colony formation in human NCI-H460 cells exogenously expressing DOT1L R231Q mutant (unknown origin) (1 to 416 residues) at 5 uM incubated for 7 to 14 days by crystal violet staining based light microscopic analysis relative to control; assay type: functional; settings: time 7-14 day
# NCI-H460 [16] = assay: Antiinvasive activity against DOT1L knockdown human NCI-H460 cells assessed as decrease in number of invading cells at 2.5 to 5 uM incubated for 72 hrs by crystal violet staining based transwell invasion assay; assay type: functional, cell-based; settings: dose 2.5-5 µM
# NCI-H460 [17] = assay: Antitumor activity against human NCI-H460 cells harboring DOT1L R231Q mutant xenografted in male BALB/c-nu mouse model assessed as tumor growth inhibition at 20 mg/kg, ip administered five times a week for 3 weeks relative to control; assay type: functional; settings: NCI-H460, 504 h, read-out: TGI
# [18] = Toxicity in male BALB/c-nu mouse model xenografted with human NCI-H460 cells harboring DOT1L R231Q mutant assessed as effect on physical activity at 20 mg/kg, ip administered five times a week for 3 weeks; assay type: organism-based; settings: in vivo, 504 h
# [19] = Toxicity in male BALB/c-nu mouse model xenografted with human NCI-H460 cells harboring DOT1L R231Q mutant assessed as effect on body weight at 20 mg/kg, ip administered five times a week for 3 weeks; assay type: organism-based; settings: in vivo, 504 h
# [20] = Toxicity in male BALB/c-nu mouse model xenografted with human NCI-H460 cells harboring DOT1L R231Q mutant assessed as effect on heart viscera index at 20 mg/kg, ip administered five times a week for 3 weeks; assay type: organism-based; settings: in vivo, 504 h
# [21] = Toxicity in male BALB/c-nu mouse model xenografted with human NCI-H460 cells harboring DOT1L R231Q mutant assessed as effect on liver viscera index at 20 mg/kg, ip administered five times a week for 3 weeks; assay type: organism-based; settings: in vivo, 504 h
# [22] = Toxicity in male BALB/c-nu mouse model xenografted with human NCI-H460 cells harboring DOT1L R231Q mutant assessed as effect on lung viscera index at 20 mg/kg, ip administered five times a week for 3 weeks; assay type: organism-based; settings: in vivo, 504 h
# [23] = Cmax in male Sprague-Dawley rat at 20 mg/kg, iv measured after 24 hrs by LC-MS/MS analysis; assay type: ADME, organism-based; settings: in vivo
# [24] = AUC (0 to infinity) in male Sprague-Dawley rat at 20 mg/kg, iv measured after 24 hrs by LC-MS/MS analysis; assay type: ADME, organism-based; settings: in vivo
# [25] = Volume of distribution at steady state in male Sprague-Dawley rat at 20 mg/kg, iv measured after 24 hrs by LC-MS/MS analysis; assay type: ADME, organism-based; settings: in vivo, read-out: Vdss
# [26] = AUC (0 to t) in male Sprague-Dawley rat at 20 mg/kg, ip measured after 24 hrs by LC-MS/MS analysis; assay type: ADME, organism-based; settings: in vivo
# [27] = Half-life in male Sprague-Dawley rat at 20 mg/kg, ip measured after 24 hrs by LC-MS/MS analysis; assay type: ADME, organism-based; settings: in vivo
# [28] = MRT (0 to infinity) in male Sprague-Dawley rat at 20 mg/kg, ip measured after 24 hrs by LC-MS/MS analysis; assay type: ADME, organism-based; settings: in vivo
# [29] = Bioavailability in male Sprague-Dawley rat at 20 mg/kg, ip measured after 24 hrs by LC-MS/MS analysis; assay type: ADME, organism-based; settings: in vivo
# NCI-H460 [30] = assay: Inhibition of ERK phosphorylation in human NCI-H460 cells exogenously expressing DOT1L R231Q mutant (unknown origin) (1 to 416 residues) at 5 uM by Western blot analysis; assay type: cell-based
# NCI-H460 [31] = assay: Inhibition of ERK phosphorylation in human NCI-H460 cells exogenously expressing wildtype DOT1L (unknown origin) (1 to 416 residues) at 5 uM by Western blot analysis; assay type: cell-based
smiles,measurement,setting,value
CC(C)(C)c1ccc(NC(=O)NCCCN(CCCN2CCOCC2)CC2(O)CCN(c3nc(Cl)nc4sccc34)C2)cc1 (stereo unspecified),IC50,NCI-H460 [1],20 µM
same,Activity,NCI-H460 [2],Active
same,Activity,NCI-H460 [3],inactive
same,Activity,NCI-H460 [4],inactive
same,Activity,NCI-H460 [5],inactive
same,Activity,NCI-H460 [6],inactive
same,Activity,NCI-H460 [7],inactive
same,Activity,NCI-H460 [8],inactive
same,Activity,NCI-H460 [9],inactive
same,Activity,NCI-H460 [10],38.3%
same,inhibition at 5 µM,NCI-H460 [11],68.9%
same,inhibition,NCI-H460 [12],Active
same,Activity,NCI-H460 [13],Active
same,Activity,NCI-H460 [14],77.7%
same,inhibition at 5 µM,NCI-H460 [15],72.8%
same,Activity,NCI-H460 [16],inactive
same,inhibition in vivo at 20 mg/kg,NCI-H460 [17],60.6%
same,Activity,[18],Non-Toxic
same,Activity,[19],Non-Toxic
same,Activity,[20],Non-Toxic
same,Activity,[21],Non-Toxic
same,Activity,[22],Non-Toxic
same,Cmax,[23],3000 ng/mL
same,AUC(0-inf),[24],6200 ng·h/mL
same,Vd,[25],14.4 L/kg
same,AUC(0-t) at 24 h,[26],5280 ng·h/mL
same,half-life,[27],6.06 h
same,MRT inf,[28],5.42 h
same,bioavailability,[29],92.2%
same,inhibition,NCI-H460 [30],Active
same,inhibition,NCI-H460 [31],inactive
